Data published in PubChem BioAssay (NCI).
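1) Cells in 96-well plates. 2) Compound, 48 h, 5 concentrations. 3) Linear interpolation between surrounding doses. 4) Unreached endpoint = highest concentration. TGI denotes the concentration required for complete inhibition of growth.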

What was measured:
Test in all cases: NCI tumour cell line growth inhibition, 48 h
786-0 renal = test system: 786-0 renal
A498 renal = test system: A498 renal
A549 NSCLC = test system: A549 NSCLC
ACHN renal = test system: ACHN renal
BT-549 breast = test system: BT-549 breast
CAKI-1 renal = test system: CAKI-1 renal
CCRF-CEM leukemia = test system: CCRF-CEM leukemia
COLO 205 colon = test system: COLO 205 colon
DU-145 prostate = test system: DU-145 prostate
EKVX NSCLC = test system: EKVX NSCLC
HCC-2998 colon = test system: HCC-2998 colon
HCT-116 colon = test system: HCT-116 colon
HCT-15 colon = test system: HCT-15 colon
HL-60(TB) leukemia = test system: HL-60(TB) leukemia
HOP-62 NSCLC = test system: HOP-62 NSCLC
HOP-92 NSCLC = test system: HOP-92 NSCLC
HS 578T breast = test system: HS 578T breast
HT29 colon = test system: HT29 colon
IGROV1 ovarian = test system: IGROV1 ovarian
K-562 leukemia = test system: K-562 leukemia
KM12 colon = test system: KM12 colon
LOX IMVI melanoma = test system: LOX IMVI melanoma
M14 melanoma = test system: M14 melanoma
MALME-3M melanoma = test system: MALME-3M melanoma
MCF7 breast = test system: MCF7 breast
MDA-MB-231 breast = test system: MDA-MB-231 breast
MDA-MB-435 = test system: MDA-MB-435
MDA-N = test system: MDA-N
MOLT-4 leukemia = test system: MOLT-4 leukemia
NCI-H226 lung = test system: NCI-H226 lung
NCI-H23 lung = test system: NCI-H23 lung
NCI-H460 lung = test system: NCI-H460 lung
NCI-H522 lung = test system: NCI-H522 lung
NCI/ADR-RES ovarian = test system: NCI/ADR-RES ovarian
OVCAR-3 ovarian = test system: OVCAR-3 ovarian
OVCAR-4 ovarian = test system: OVCAR-4 ovarian
OVCAR-5 ovarian = test system: OVCAR-5 ovarian
OVCAR-8 ovarian = test system: OVCAR-8 ovarian
PC-3 prostate = test system: PC-3 prostate
RPMI-8226 leukemia = test system: RPMI-8226 leukemia
RXF 393 renal = test system: RXF 393 renal
SF-268 CNS = test system: SF-268 CNS
SF-295 CNS = test system: SF-295 CNS
SF-539 CNS = test system: SF-539 CNS
SK-MEL-2 melanoma = test system: SK-MEL-2 melanoma
SK-MEL-28 melanoma = test system: SK-MEL-28 melanoma
SK-MEL-5 melanoma = test system: SK-MEL-5 melanoma
SK-OV-3 ovarian = test system: SK-OV-3 ovarian
SN12C renal = test system: SN12C renal
SNB-19 CNS = test system: SNB-19 CNS
SR leukemia = test system: SR leukemia
SW-620 colon = test system: SW-620 colon
T-47D breast = test system: T-47D breast
TK-10 renal = test system: TK-10 renal
U251 CNS = test system: U251 CNS
UACC-257 melanoma = test system: UACC-257 melanoma
UACC-62 melanoma = test system: UACC-62 melanoma
UO-31 renal = test system: UO-31 renal
SNB-75 CNS = test system: SNB-75 CNS

Compound: NS(=O)(=O)c1ccc(Nc2c3ccccc3nc3c(C(=O)NC(CO)(CO)CO)cccc23)cc1
- TGI (786-0 renal): 51.4 nM
- TGI (A498 renal): 466 nM
- TGI (A549 NSCLC): 314 nM
- TGI (ACHN renal): 508 nM
- TGI (BT-549 breast): 322 nM
- TGI (CAKI-1 renal): 525 nM
- TGI (CCRF-CEM leukemia): 891 nM
- TGI (COLO 205 colon): 175 nM
- TGI (DU-145 prostate): 812 nM
- TGI (EKVX NSCLC): > 1000 nM
- TGI (HCC-2998 colon): 390 nM
- TGI (HCT-116 colon): 327 nM
- TGI (HCT-15 colon): 948 nM
- TGI (HL-60(TB) leukemia): 642 nM
- TGI (HOP-62 NSCLC): 433 nM
- TGI (HOP-92 NSCLC): 389 nM
- TGI (HS 578T breast): 440 nM
- TGI (HT29 colon): 450 nM
- TGI (IGROV1 ovarian): 506 nM
- TGI (K-562 leukemia): 642 nM
- TGI (KM12 colon): 309 nM
- TGI (LOX IMVI melanoma): 286 nM
- TGI (M14 melanoma): 390 nM
- TGI (MALME-3M melanoma): 272 nM
- TGI (MCF7 breast): 106 nM
- TGI (MDA-MB-231 breast): 434 nM
- TGI (MDA-MB-435): 558 nM
- TGI (MDA-N): 862 nM
- TGI (MOLT-4 leukemia): 195 nM
- TGI (NCI-H226 lung): 315 nM
- TGI (NCI-H23 lung): 318 nM
- TGI (NCI-H460 lung): 248 nM
- TGI (NCI-H522 lung): 306 nM
- TGI (NCI/ADR-RES ovarian): > 1000 nM
- TGI (OVCAR-3 ovarian): 339 nM
- TGI (OVCAR-4 ovarian): 193 nM
- TGI (OVCAR-5 ovarian): 709 nM
- TGI (OVCAR-8 ovarian): 595 nM
- TGI (PC-3 prostate): 814 nM
- TGI (RPMI-8226 leukemia): 683 nM
- TGI (RXF 393 renal): 386 nM
- TGI (SF-268 CNS): 486 nM
- TGI (SF-295 CNS): > 1000 nM
- TGI (SF-539 CNS): 407 nM
- TGI (SK-MEL-2 melanoma): 396 nM
- TGI (SK-MEL-28 melanoma): 576 nM
- TGI (SK-MEL-5 melanoma): 229 nM
- TGI (SK-OV-3 ovarian): 468 nM
- TGI (SN12C renal): 695 nM
- TGI (SNB-19 CNS): 783 nM
- TGI (SR leukemia): > 1000 nM
- TGI (SW-620 colon): 435 nM
- TGI (T-47D breast): > 1000 nM
- TGI (TK-10 renal): 311 nM
- TGI (U251 CNS): 457 nM
- TGI (UACC-257 melanoma): 346 nM
- TGI (UACC-62 melanoma): 318 nM
- TGI (UO-31 renal): 366 nM

Compound: CC1=C(C(=S)Nc2ccc(Cl)c(C(=O)OC(C)C)c2)SCCO1
- TGI (786-0 renal): 30200 nM
- TGI (A498 renal): 30700 nM
- TGI (A549 NSCLC): 84100 nM
- TGI (ACHN renal): 85900 nM
- TGI (BT-549 breast): 37800 nM
- TGI (CAKI-1 renal): 48500 nM
- TGI (CCRF-CEM leukemia): 44000 nM
- TGI (COLO 205 colon): 37400 nM
- TGI (DU-145 prostate): 57100 nM
- TGI (EKVX NSCLC): 54400 nM
- TGI (HCC-2998 colon): 31200 nM
- TGI (HCT-116 colon): 28600 nM
- TGI (HCT-15 colon): 44900 nM
- TGI (HL-60(TB) leukemia): 37200 nM
- TGI (HOP-92 NSCLC): 38500 nM
- TGI (HS 578T breast): 75100 nM
- TGI (HT29 colon): 32600 nM
- TGI (IGROV1 ovarian): 33100 nM
- TGI (K-562 leukemia): 43600 nM
- TGI (KM12 colon): 33500 nM
- TGI (LOX IMVI melanoma): 28800 nM
- TGI (M14 melanoma): 44000 nM
- TGI (MALME-3M melanoma): 36900 nM
- TGI (MCF7 breast): > 100000 nM
- TGI (MDA-MB-231 breast): 33200 nM
- TGI (MDA-MB-435): 42700 nM
- TGI (MDA-N): 39200 nM
- TGI (MOLT-4 leukemia): 46600 nM
- TGI (NCI-H226 lung): 44600 nM
- TGI (NCI-H23 lung): 62200 nM
- TGI (NCI-H460 lung): 44600 nM
- TGI (NCI-H522 lung): 44300 nM
- TGI (NCI/ADR-RES ovarian): 43200 nM
- TGI (OVCAR-3 ovarian): 52700 nM
- TGI (OVCAR-4 ovarian): 43500 nM
- TGI (OVCAR-5 ovarian): > 100000 nM
- TGI (OVCAR-8 ovarian): 46500 nM
- TGI (PC-3 prostate): 46400 nM
- TGI (RPMI-8226 leukemia): 63900 nM
- TGI (SF-268 CNS): 60800 nM
- TGI (SF-295 CNS): 36400 nM
- TGI (SF-539 CNS): 38400 nM
- TGI (SK-MEL-2 melanoma): 48900 nM
- TGI (SK-MEL-28 melanoma): 35400 nM
- TGI (SK-MEL-5 melanoma): 30800 nM
- TGI (SK-OV-3 ovarian): 54800 nM
- TGI (SN12C renal): 32900 nM
- TGI (SNB-19 CNS): 44500 nM
- TGI (SNB-75 CNS): 43700 nM
- TGI (SW-620 colon): 44700 nM
- TGI (T-47D breast): 51700 nM
- TGI (TK-10 renal): 54300 nM
- TGI (U251 CNS): 36200 nM
- TGI (UACC-257 melanoma): 47000 nM
- TGI (UACC-62 melanoma): 32600 nM
- TGI (UO-31 renal): 32800 nM
